According to patent US20020143062A1, “Method to incorporate N-(4-hydroxyphenyl) retinamide in liposomes” (Board of Regents, The University of Texas System, priority 2000, published 2002):
Where a name gives a salt, the structure may show the parent alone. Read-outs that look alike come from different tables or passages of the source. Starred links: 1 amine or outer side, 2 acyl side, 3 side chain; linkers in the order of their positions; H or OH if unused. Positions of bridges follow the written chain, without caps; N, C: chain ends. Non-standard residues stand in square brackets, D forms with d. Residues, ends and D or L forms follow the SMILES beside them. Chains are numbered I, II in the order given. Actinocin(9to1) = Cc1c2oc3c(C)ccc(C(=O)[*:1])c3nc-2c(C(=O)[*:2])c(N)c1=O; NMeV = CN[C@H](C(=O)O)C(C)C; Sar = CNCC(=O)O

Legend:
[1] = cited from earlier work
ER-positive MCF-7 cells [2] = experiment: NO production, nitrite assay (Tables 5 and 7); format: cell-based; details: for increase of iNOS production of NO in the presence of cyclosporin A: both ER positive and ER negative breast cancer cells (Tables 7, 8)
From the text: (§1) Nitric oxide (NO), an important biological second messenger, is known to induce growth inhibition and apoptosis in cells. Nitric oxide (NO) is biosynthesized by isoenzymes called nitric oxide synthases. One such isoenzyme, inducible NOS (iNOS), is present only after cytokine induction, such as interferon-γ (IFN-γ). […] Here, the ability of liposomal 4-HPR and IFN-γ to induce NO production and growth inhibition in breast cancer positive (Table 5) and breast cancer negative (Table 6) cells is examined by nitrite assays and growth inhibition assays, as known to the skilled artisan.
(§2) It is also known to those skilled in the art that nitric oxide (NO) is a biologic mediator derived from the amino acid L-arginine. A family of enzymes, known as nitric oxide synthase (NOS), act upon L-arginine to oxidize one of the guanidino nitrogens to nitric oxide while citrulline is formed from the remainder of the L-arginine molecule.
(§3) Liposomal 4-HPR in combination with cyclosporin A, increased iNOS production of NO in breast cancer cells (Table 3-5). […] Furthermore, an increase in the production of NO in these cells was not indicated with other retinoids such as CD437 and ATRA.

ER-positive MCF-7 cells [3] = experiment: Growth inhibition, cell count (Table 5); format: cell-based; details: alone or with 4HPR 1 μM as labelled, 5 days
From the text: as §1

ER-positive MCF-7 cells [4] = experiment: NO production, nitrite assay (Table 6); format: cell-based; details: alone or with 4HPR 1 μM as labelled, 5 days
From the text: as §1, §2

ER-positive MCF-7 cells [5] = experiment: Growth inhibition, cell count (Table 6); format: cell-based; details: alone or with 4HPR 1 μM as labelled, 5 days
From the text: Nitric oxide (NO), an important biological second messenger, is known to induce growth inhibition and apoptosis in cells. Nitric oxide (NO) is biosynthesized by isoenzymes called nitric oxide synthases. […]

[6] = cited from earlier work; remark: listed apart in the source
[7] = system: ER-negative MDA-MB-231 cells; experiment: NO production, nitrite (Table 8); format: cell-based; details: cyclosporin A 4 μg/ml; CD437 2 μM; ATRA 1 μM; alone or combined as labelled; 3 days
From the text: as §3

MCF-7/WT = experiment: Cellular proliferation assay, IC50 of retinoids with/without cyclosporin A; format: cell-based
MCF-7/ADR = experiment: as above; format: cell-based
[8] = cited from earlier work; remark: listed apart in the source
[9] = single oral doses of about 0.6 mg/kg to about […]
[10] = cyclosporin A 4 μg/ml, CD437 2 μM, ATRA 1 μM, alone or combined as labelled, 3 days
[11] = without cyclosporin A, read-out: IC50 Without CsA

In the case of `COc1cccc2c1C(=O)c1c(O)c3c(c(O)c1C2=O)C[C@@](O)([C@H](C)O)C[C@@H]3O[C@H]1C[C@H](N)[C@H](O)[C@H](C)O1` [daunorubicinol], the “half-life of active metabolite” value ([1]; in vivo) is given as “about 27 hours”.

For `COc1cccc2c1C(=O)c1c(O)c3c(c(O)c1C2=O)C[C@@](O)(C(C)=O)C[C@@H]3O[C@H]1C[C@H](N)[C@H](O)[C@H](C)O1` [Daunorubicin, 5,12-Naphthacenedione, (8S-cis)-8-acetyl-10-[(3-amino-2,3,6-trideoxy-a-L-lyxo-hexanopyranosyl)oxy]-7,8,9,10-tetrahydro-6,8,11-trihydroxy-10-methoxy-, hydrochloride], the “oral / gastrointestinal absorption” value ([1]; in vivo) is listed as “Oral absorption is poor”, the elimination half-life ([1]; in vivo) is listed as “about 19 hours” and the “secreted into the bile” value ([1]; in vivo) is listed as “about 40%”.

For `N.N.[Cl][Pt][Cl]` [Cisplatin], the “oral / gastrointestinal absorption” value ([1]; in vivo) is given as “not absorbed orally”.

In the case of “IFN-γ: Interferon gamma, cytokine that induces iNOS”, the “Nitrite (NO production)” value (ER-positive MCF-7 cells [2]; IFN-γ 25 U/ml, alone or with 4HPR 1 μM as labelled, 5 days) is reported as 7.1 ± 3.3 μM Nitrite /1 × 10^6 cells, the “Nitrite (NO production)” value (ER-positive MCF-7 cells [2]; IFN-γ 50 U/ml, alone or with 4HPR 1 μM as labelled, 5 days) is reported as 6.6 ± 0.5 μM Nitrite /1 × 10^6 cells and the Cell count (ER-positive MCF-7 cells [3]; IFN-γ 25 U/ml) is reported as 254 × 10^4. For the same compound, the Cell count (ER-positive MCF-7 cells [3]; IFN-γ 50 U/ml) was 258 × 10^4, the “Nitrite (NO production)” value (ER-positive MCF-7 cells [4]; IFN-γ 25 U/ml) was 28.3 ± 4.1 μM Nitrite /1 × 10^6 cells and the “Nitrite (NO production)” value (ER-positive MCF-7 cells [4]; IFN-γ 50 U/ml) was 24.4 ± 0.4 μM Nitrite /1 × 10^6 cells. The Cell count (ER-positive MCF-7 cells [5]; IFN-γ 25 U/ml) was 51 × 10^4 and the Cell count (ER-positive MCF-7 cells [5]; IFN-γ 50 U/ml) was 52 × 10^4.

In the case of `Cc1c2oc3c(C)ccc(C(=O)N[C@@H]4C(=O)N[C@H](C(C)C)C(=O)N5CCC[C@H]5C(=O)N(C)CC(=O)N(C)[C@@H](C(C)C)C(=O)O[C@@H]4C)c3nc-2c(C(=O)N[C@@H]2C(=O)N[C@H](C(C)C)C(=O)N3CCC[C@H]3C(=O)N(C)CC(=O)N(C)[C@@H](C(C)C)C(=O)O[C@@H]2C)c(N)c1=O` [Actinomycin D] (I: T[dV]P[Sar][NMeV] / II: T[dV]P[Sar][NMeV]; ester I:1-I:C, II:1-II:C; linker I:N-II:N via Actinocin(9to1)), the “dose excreted intact into the bile” value ([1]; in vivo) is listed as “Half of the dose”, the “dose excreted intact into the urine” value ([1]; in vivo) is listed as 10% and the half-life ([1]; in vivo) is listed as “about 36 hours”. For the same compound, the “passage of the blood-brain barrier” value ([1]; in vivo) was “does not pass the blood-brain barrier”.

For `CS(=O)(=O)OCCCCOS(C)(=O)=O` [Busulfan, 1,4-butanediol dimethanesulfonate], the “adults obtaining hematologic remission with regression or stabilization of organomegaly” value ([6]; previously untreated chronic myelogenous leukemia) is listed as “Approximately 90%”.

In the case of `N[C@@H](Cc1ccc(N(CCCl)CCCl)cc1)C(=O)O` [Melphalan, 4-[bis(2-chloroethyl)amino]-L-phenylalanine], the “proportion of patients with a favorable response” value ([6]; multiple myeloma, oral administration) is listed as “about one third to one half”.

In the case of `CC[C@]1(O)C[C@H]2CN(CCc3c([nH]c4ccccc34)[C@@](C(=O)OC)(c3cc4c(cc3OC)N(C=O)[C@H]3[C@@](O)(C(=O)OC)[C@H](OC(C)=O)[C@]5(CC)C=CCN6CC[C@]43[C@@H]65)C2)C1` [vincristine], the “terminal half-life (clearance from plasma)” value ([1]; in vivo) is listed as “about 24 hours”.

In the case of `O=C(O)CCCc1ccc(N(CCCl)CCCl)cc1` [Chlorambucil, 4-[bis(2-chlorethyl)amino] benzenebutanoic acid], the “oral / gastrointestinal absorption” value ([1]; in vivo) is listed as “rapidly and completely absorbed”, the “terminal half-life of the parent drug” value [1, 9] is listed as “about 1.5 hours” and the “time to peak plasma chlorambucil levels” value [1, 9] is listed as “within one hour”.

In the case of `CC[C@]1(O)C[C@@H]2CN(CCc3c([nH]c4ccccc34)[C@@](C(=O)OC)(c3cc4c(cc3OC)N(C)[C@H]3[C@@](O)(C(=O)OC)[C@H](OC(C)=O)[C@]5(CC)C=CCN6CC[C@]43[C@@H]65)C2)C1` [vinblastine], the “administered dose recovered in the feces after biliary excretion” value ([1]; in vivo) is given as “about 10%”, the “half-life of disappearance from plasma after distribution (first)” value ([1]; intravenous injection) is given as “approximately 1 hours” and the “half-life of disappearance from plasma after distribution (second)” value ([1]; intravenous injection) is given as roughly 72000 s.

With `O=C(O)c1ccc2cc(-c3ccc(O)c(C45CC6CC(CC(C6)C4)C5)c3)ccc2c1` [CD437] the “increase of iNOS production of NO in the presence of cyclosporin A” value (ER-positive MCF-7 cells [2]) was “not indicated”, the “Nitrite (NO production)” value (ER-positive MCF-7 cells [2]; [10]) was 71.8 μM Nitrite /1 × 10^6 cells and the “Nitrite (NO production)” value [7] was 59.3 μM Nitrite /1 × 10^6 cells. For the same compound, the IC50 (MCF-7/WT; cotreatment with CsA, concentration not marked, read-out: IC50 With CsA) was 358 nM, the IC50 (MCF-7/WT; [11]) was 287 nM and the IC50 (MCF-7/ADR; cotreatment with CsA 2 μg/ml, read-out: IC50 With CsA) was 197000 nM. For the same compound, the IC50 (MCF-7/ADR; cotreatment with CsA 4 μg/ml, read-out: IC50 With CsA) was 1190 nM and the IC50 (MCF-7/ADR; [11]) was 1580 nM.

For `COc1cccc2c1C(=O)c1c(O)c3c(c(O)c1C2=O)C[C@@](O)(C(=O)CO)C[C@@H]3O[C@H]1C[C@H](N)[C@H](O)[C@H](C)O1` [Doxorubicin, 5,12-Naphthacenedione, (8s-cis)-10-[(3-amino-2,3,6-trideoxy-a-L-lyxo-hexopyranosyl)oxy]-7,8,9,1 0-tetrahydro-6,8,11-trihydroxy-8-(hydroxyacetyl)-1-methoxy-hydrochloride], the “oral / gastrointestinal absorption” value ([1]; in vivo) is given as “absorbed poorly” and the elimination half-life ([1]; in vivo) is given as “about 30 hours”.

In the case of `O=NN(CCCl)C(=O)NC1CCCCC1` [Lomustine, 1-(2-chloro-ethyl)-3-cyclohexyl-l nitrosourea], the “radioactivity excreted in the form of degradation products within 24 hours” value ([1]; oral radioactive lomustine, about 30 mg/m^2 to 100 mg/m^2) is given as “about half” and the “serum half-life of the metabolites” value ([1]; oral radioactive lomustine) is given as “about 16 hours to about 2 days”.

For `CO[C@@]12[C@H](COC(N)=O)C3=C(C(=O)C(C)=C(N)C3=O)N1C[C@@H]1N[C@@H]12` [Mitomycin], the “time required to reduce the serum concentration by about 50%” value ([8]; 30 mg bolus injection) is given as 17 min and the “dose excreted unchanged in the urine” value ([8]; in vivo) is given as “Approximately 10%”.

For `CC1=C(/C=C/C(C)=C/C=C/C(C)=C/C(=O)O)C(C)(C)CCC1` [ATRA, all-trans-retinoic acid], the “increase of iNOS production of NO in the presence of cyclosporin A” value (ER-positive MCF-7 cells [2]) was “not indicated”, the “Nitrite (NO production)” value (ER-positive MCF-7 cells [2]; [10]) was 15.1 μM Nitrite /1 × 10^6 cells and the “Nitrite (NO production)” value [7] was 7.1 μM Nitrite /1 × 10^6 cells. The IC50 (MCF-7/WT; Homo sapiens, MCF7, cotreatment with CsA, concentration not marked, read-out: IC50 With CsA) was 287 nM and the IC50 (MCF-7/WT; Homo sapiens, MCF7, without cyclosporin A, read-out: IC50 Without CsA) was 288 nM.
